Experimental data from patent US20030232986A1, “Inhibitors of caspases” (Vertex Pharmaceuticals Incorporated, priority 1998, published 2003).

How the values were obtained:
[1] = Single pass perfusion in rat: GI wall and liver metabolism, biliary excretion; assay type: in vitro ADME; conditions: for f (g) Xf (h): GI wall metabolism f(g) x liver metabolism f(h)
Procedure: Single pass perfusion studies in rat were performed to assess gastrointestinal (GI) wall metabolism (f(g)), liver metabolism (f(h)), and biliary excretion. The method used has been described in Pang, C. S., J. Pharmacol. Exp. Therapeutics, 333, pp. 788-798 (1984).

[2] = biological target: Caspase-8 (Homo sapiens, UniProt Q14790); assay: Caspase-8 enzyme inhibition (Ki); assay type: biochemical; conditions: substrate Ac-DEVD-pNA 80 μM, 37° C.
Chain of Caspase-8 (Q14790 217-374 limits assumed): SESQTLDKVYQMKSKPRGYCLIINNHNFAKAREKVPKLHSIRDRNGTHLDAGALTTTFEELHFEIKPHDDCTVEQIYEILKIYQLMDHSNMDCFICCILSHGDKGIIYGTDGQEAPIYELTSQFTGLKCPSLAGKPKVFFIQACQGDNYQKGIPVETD
Chain of Caspase-8 (Q14790 385-479 limits assumed): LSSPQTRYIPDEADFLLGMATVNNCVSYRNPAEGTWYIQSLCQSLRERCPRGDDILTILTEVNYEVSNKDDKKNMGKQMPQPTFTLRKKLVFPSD
Procedure: (§1) Ki values for test compounds with the various caspases were obtained by the method of Margolin et al. (J. Biol. Chem., 272 pp. 7223-7228 (1997)). Assays were performed in 10 mM Tris (Sigma Corp, St Louis Mo.) pH 7.5, 1 mM Dithiothreitol (DTT, Research Organic INC, Cleveland, Ohio) and 0.1% CHAPS (Pierce, Rockford Ill.) at 37° C. For caspase-3, a solution of 8% glycerol was added to the assay buffer to improve enzyme stability. A 65 μL aliquot of the assay buffer and 5 μL aliquot of the appropriate dilutions of inhibitor in DMSO where pipetted into a 96 well plate, treated with 10 μL of caspase, then diluted in assay buffer (0.5-40 nM active protein by active site titration). A control containing DMSO but no compound was included for each determination. The plates were then incubated for 15 minutes at 37° C., before addition of the appropriate substrate (20 μL, final concentration 1-4×KM, final assay volume 100 μL) to initiate the reaction. Reaction rates were measured at 37° C. either by following the time dependant increase in absorbance at 405 nm (for the pNA substrates) or in fluorescence (Ex 390, Em 460) (for the AMC substrates). The rates obtained were plotted against inhibitor concentration and the data fit to the Morrison tight-binding equation for competitive inhibitors (Morrison, J. F., Biochem. Biophys. Acta, 185 pp. 269-286 (1969)). The substrates used for the individual assays were as follows:
Caspase-8 Ac-DEVD-pNA (Bachem, King of Prussia, Pa.) (final concentration in assay 80 μM).

[3] = biological target: T1, Caspase-3 (Homo sapiens, UniProt P42574); assay: Caspase-3 enzyme inhibition (Ki); assay type: biochemical; conditions: substrate Ac-DEVD-pNA 60 μM, 8% glycerol in buffer, 37° C.
T1 sequence (P42574 29-175 limits assumed): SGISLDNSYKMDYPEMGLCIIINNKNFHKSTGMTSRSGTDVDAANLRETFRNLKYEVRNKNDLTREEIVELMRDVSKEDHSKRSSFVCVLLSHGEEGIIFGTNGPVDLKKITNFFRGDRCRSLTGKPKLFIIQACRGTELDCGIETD
T1 sequence (P42574 176-277 limits assumed): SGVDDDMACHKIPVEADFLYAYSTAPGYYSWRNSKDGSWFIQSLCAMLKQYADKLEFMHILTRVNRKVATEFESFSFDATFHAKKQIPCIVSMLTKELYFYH
Procedure: as §1
Caspase-3 Ac-DEVD-pNA (Bachem, King of Prussia, Pa.) (final concentration in assay, 60 μM)

[4] = tested on: Human whole blood, IL-1β production; assay: Whole blood assay for IL-1β production; assay type: cell-based; conditions: LPS-stimulated whole blood, IL-1β by ELISA
Procedure, shortened: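 LPS-stimulated (5.0 ng/ml final) human whole blood incubated with test compound in saline (or plasma/PBS-5% DMSO for hydrophobic compounds) at 30° C for 16-18 hr. Plasma IL-1β then measured by ELISA at 1:200 dilution, against no-LPS, no-inhibitor and vehicle controls.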

Row | SMILES | Biliary Excretion [1] | f (g) Xf (h) [1] | Ki [2] [nM] | Ki [3] [nM] | IC50 [4] [nM]
1 | COc1ccc(C(=O)N[C@@H](C)C(=O)N2CCC[C@H]2C(=O)N[C@H](C=O)CC(=O)O)cc1 [Example 7f] | A (category “A” indicates <5%) | C (Category “C” indicates 0.5-0.75) | > 1000 | > 1000 | 2500 to 7500
2 | C[C@H](NC(=O)c1ccc(N)c(Cl)c1)C(=O)N1CCC[C@H]1C(=O)N[C@H](C=O)CC(=O)O [Example 122b, 3-({-[2-(4-Amino-3-chloro-benzoylamino)-propionyl]-pyrrolidine-2-carbonyl}-amino)-4-oxo-butyric acid] | A (category “A” indicates <5%) | C (Category “C” indicates 0.5-0.75) | 10 to 1000 | > 1000 | < 2500
3 | COc1c(C)cc(C(=O)N[C@@H](C)C(=O)N2CCC[C@H]2C(=O)N[C@H](C=O)CC(=O)O)cc1C [Example 122d, 3-({1-[2-(4-Methoxy-3,5-dimethyl-benzoylamino)-propionyl]-pyrrolidine-2-carbonyl}-amino)-4-oxo-butyric acid] | A (category “A” indicates <5%) | C (Category “C” indicates 0.5-0.75) | > 1000 | > 1000 | < 2500
4 | C[C@H](NC(=O)c1nccc2ccccc12)C(=O)N1CCC[C@H]1C(=O)N[C@H](C=O)CC(=O)O [Example 7d] | A (category “A” indicates <5%) | D (Category “D” indicates >0.75) | 10 to 1000 | > 1000 | 2500 to 7500
